According to patent EP1207886B1, “SPHINGOMYELINASE INHIBITORS AS AGENTS WITH ANTIAPOPTOTIC AND ANTISEPTIC ACTION” (Biofrontera Pharmaceuticals GmbH, priority 1999, dated 2000):
pIC50: −log10 of the molar value.

Legend:
Assay type in all cases: cell-based, Menschliche
[1] = tested on: Mφ; experiment: Cell culture and apoptosis test (counting YOPRO-1-stained apoptotic cells); conditions: differentiated Mφ pretreated 30 min with compound, then mmLDL or TNF α (3 ng/ml); YOPRO-1 count after four hours; read-out: Apoptose (IC-50)
Description: LDL wurde von gesunden, freiwilligen Testpersonen durch sequentielle Flotation in einer Ultrazentrifuge bei vorbestimmten Dichten erhalten, wie in Havel et al. (J. Clin. Invest. 34, 3145 (1955)) bzw. Deigner et al. (Arzneim.-Forsch./Drug Res. 44, 956, (1994)) beschrieben. Für den Apoptose-Test wurde LDL durch Dialyse gegen Tris-HCl-Puffer, der 20 µMol FeCl3 enthielt, für 48 Stunden minimal modifiziert (mmLDL), wie von Watson et al. (J. Clin. Invest. 95, 774 (1995) beschrieben.
Menschliche, mononucleäre, periphere Blutzellen aus venösem Blut wurden isoliert, gezüchtet und, wie in Kinscherf et al. (The FASEB J. 11, 1317 (1997); The FASEB J. 12, 461 (1998)) beschrieben, bis zum Differenzieren zu Mφ belassen. Differenzierte Mφ wurden mit Lipoproteinmangelserum (P>1,21, durch Ultrazentrifugieren von fötalem Kälberserum hergestellt, wie in Havel et al. beschrieben) für 24 Stunden vor der Testdurchführung gezüchtet, mit der entsprechenden Verbindung für 30 Minuten bei den angeführten Konzentrationen vorbehandelt und anschließlich mLDL oder rekombinantem TNF α (3 ng/ml) in dem gleichen Medium ausgesetzt. Die Bestimmung der Apoptose wurde durch Zählen von YOPRO-1-gefärbten apoptotischen Zellen, wie in Idziorek et al. (J. Immunol. Methods 185, 249 (1995)) beschrieben, nach vier Stunden durchgeführt.

[2] = tested on: Mφ; experiment: Apoptosis in Mφ induced by C6-ceramide or mmLDL (YOPRO-1 staining / TUNEL); conditions: for programmierten Zelltod in Mφ: mmLDL or ceramide
Protocol: (§1) Fig. 6 zeigt die Wirkung einer Vorbehandlung von Mφ mit einer Zusammensetzung die [3-(Carbazol-9-yl)-N-propyl]-[2-(4-methoxyphenyl)-ethyl]-methylamin (V6) enthält (2 µM, 30 min), auf die aSMase-Expression und die Apoptose in Mφ (Prozentanteil von apoptotischen Mφ, bestimmt durch YOPRO-1-Färbung nach Inkubation mit Medium oder C6-Ceramid (10 µM) mit oder ohne Vorbehandlung mit der Verbindung V6; Daten sind als Mittelwert ± SEM von drei Experimenten angegeben. *, P ≤ 0,05 vs. Kontrolle oder #, P ≤ 0,05 vs. mit C6-Ceramid behandelten Zellen (120 min)).
(§2) Menschliche, mononucleäre, periphere Blutzellen aus venösem Blut wurden mittels Ficoll-Paque (Sigma, Deisenhofen, BR Deutschland) Dichtegradientenzentrifugierung isoliert. Mφ wurden mmLDL (27 µg/ml), C6-Ceramid (10 µM) bzw. H2O2 (30 µM) unterworfen. Apoptotische Zellen wurden mittels YOPRO-1-Färbung (s. Idziorek et al, J. Immunol. Methods, 185, 1995, 249-258) und/oder mittels TUNEL-Technik (Quantum Appligene, Heidelberg, BR Deutschland) identifiziert. Die Bestimmung der Apoptose (Prozentanteil apoptotischer Zellen) wurde durch Zählen von YOPRO-1-gefärbten apoptotischen Zellen unter Verwendung eines Mikroskops, ausgestattet mit einer Quecksilberlampe und einer Fluoreszenzeinheit in Kombination mit einem Computer-unterstützten Morphometriesystem, quantifiziert.

[3] = tested on: Ceramid; experiment: Ceramide concentration in cells (diacylglycerol-kinase phosphorylation); conditions: Mφ, mmLDL or ceramide
Description: Die Ceramidkonzentrationen in den Zellen wurden nach Diacylglycerolkatalysierter Phosphorylierung, wie in Kinscherf et al. (FEBS, 405, 55 (1997)) und Dressler et al. (J. Biol. Chem. 265, 14917 (1990)) beschrieben, bestimmt.
Figur 1 zeigt in einem Diagramm die Phospho-Ceramid-Konzentration (cpm/spot) nach ox. LDL-Stimulierung zum einen ohne (ox) und zum anderen unter Zugabe entsprechender Verbindungen mit der allgemeinen Formel (I), die in den erfindungsgemäßen pharmazeutischen Zusammensetzungen enthalten sein können, nämlich [2-(3,4-Dimethoxyphenyl)-ethyl]-[3-(2-chlorphenothiazin-10-yl)-N-propyl]-methylamin (V3) und [3-(Carbazol-9-yl)-N-propyl]-[2-(4-methoxyphenyl)-ethyl]methylamin (V6). Ferner ist auch die Phospho-Ceramid-Konzentration in Folge der Stimulation durch TNF angegeben.

[4] = tested on: aSMase; experiment: RT-PCR of aSMase expression in Mφ; conditions: for mmLDL- oder Ceramid-induzierte Enzyminduktion: Mφ
Protocol: Fig. 5 zeigt die RT-PCR von aSMase in Mφ. Es zeigt sich eine Expression von aSMase (687 bp) nach Inkubation (4 h) von Mφ mit steigenden mmLDL-Konzentrationen.
as §1, §2
Für die Amplifizierung der aSMase waren die Primer und die Bedingungen wie folgt: 5'-[…]-3' (vorwärts) und 5'-[…]-3', 94°C, 60°C, 72°C, jeweils 1 min, 40 Zyklen (Sequenzanalyse des gereinigten PCR-Produkts durch das Deutsche Krebsforschungszentrum, Heidelberg, BR Deutschland, bestätigte die Amplifizierung des erwarteten aSMase-Fragments).

[5] = molecular target: T1, sauren Sphingomyelinase (Homo sapiens, UniProt P17405); experiment: SMase inhibition in cells (activity in cell lysates, BODIPY-FL-C5-sphingomyelin, HPLC); conditions: for pIC50: human macrophages pretreated 30 min with compound, then 2 h oxidised LDL (27 µg/ml), lysate activity at pH 5,0, read-out: Hemmung der sauren Sphingomyelinase (Zellen) (IC-50)
T1 construct: endogenous in cells; host or cells: human macrophages (treated with compound, then oxidised LDL; lysed, supernatant assayed)
T1 sequence (P17405 47-631): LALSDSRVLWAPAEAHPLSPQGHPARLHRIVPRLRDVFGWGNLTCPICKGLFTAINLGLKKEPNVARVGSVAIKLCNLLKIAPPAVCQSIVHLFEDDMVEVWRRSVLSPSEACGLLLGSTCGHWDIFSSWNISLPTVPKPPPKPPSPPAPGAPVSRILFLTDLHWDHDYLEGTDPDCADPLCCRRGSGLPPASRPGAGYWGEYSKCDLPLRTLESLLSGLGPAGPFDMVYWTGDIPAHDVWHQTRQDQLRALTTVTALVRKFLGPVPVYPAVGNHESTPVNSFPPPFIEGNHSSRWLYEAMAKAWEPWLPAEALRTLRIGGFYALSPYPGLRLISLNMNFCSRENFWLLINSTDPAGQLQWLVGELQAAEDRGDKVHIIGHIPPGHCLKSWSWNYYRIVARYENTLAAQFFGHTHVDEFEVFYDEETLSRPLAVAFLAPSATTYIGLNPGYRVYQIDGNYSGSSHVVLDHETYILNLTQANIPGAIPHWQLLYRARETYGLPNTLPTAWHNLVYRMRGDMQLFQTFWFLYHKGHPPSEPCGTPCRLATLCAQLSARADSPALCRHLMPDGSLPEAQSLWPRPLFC
Protocol: Menschliche Makrophagen wurden mit entsprechenden, in den erfindungsgemäßen Zusammensetzungen enthaltenen Verbindungen für 30 Minuten und anschließend zwei Stunden mit oxidiertem LDL (27 µg/ml) vorbehandelt. Anschließend wurde das Medium entfärbt, die Zellen mit vorgekühltem (4°C) PBS gewaschen und 15 Minuten mit Lysepuffer (NaAc, 250 mMol, pH 5,0, TritonX-100 0,2%) bei 4°C behandelt und zentrifugiert (18.000 g). Die Überstände (5 µl) wurden mit ARB-Puffer (NaAc, 250 mMol, pH 5,0) unter Erhalten einer Proteinkonzentration von 80 µg/ml verdünnt, 45 Minuten mit BODIPY®-FL-C5-sphingomyelin (8 nM) bei 37°C inkubiert. Anschließend wurden 150 µl Methanol (interner Standard: C5-BODIPY®-Säure) zugegeben. Die Proben wurden einer HPLC-Analyse (50% MeOH/10% Tris-HCl, pH 7,5, 10 mMol, 2 ml/min, E. Merck Lichrospher 125-4, 100-5 µMol RP-18, Fluoreszenzdetektion 503Ex/512Em) unterworfen.

10-(3-{4-[2-(3,-Dimethoxyphenyl)-ethyl]-3,5-dimethylpiperazin-1-yl}-propyl)-9H-carbazol [V42]
pIC50 [1]: 5.40

COc1ccc(Cn2c(=O)c3ccccc3n(Cc3ccc(OC)cc3)c2=O)cc1 [1,3-Bis-(4-methoxybenzyl)-1H-chinazolin-2,4-dion]
pIC50 [1]: 6.30

COc1ccc(Cn2c(=O)[nH]c3ccccc3c2=O)cc1 [3-(4-Methoxybenzyl)-1H-chinazolin-2,4-dion]
pIC50 [1]: 5.52

COc1ccc(Cn2c3ccccc3c3ccccc32)cc1 [9-(4-Methoxybenzyl-9H-carbazol)]
pIC50 [1]: 6.00

COc1ccc(CCN(C)CCCN2c3ccccc3Sc3ccc(Cl)cc32)cc1OC [V3, [2-(3,4-Dimethoxyphenyl)-ethyl]-[3-(2-chlorphenothiazin-10-yl)-N-propyl]-methylamin]
pIC50 [1]: 5.70
programmierten Zelltod in Mφ [2]: vermindert
Stimulierung der Ceramidbildung [3]: inhibieren
mmLDL- oder Ceramid-induzierte Enzyminduktion [4]: inhibieren
pIC50 [5]: 5.22

COc1ccc(CCN(C)CCCN2c3ccccc3Sc3ccc(Cl)cc32)cc1 [V4, [2-(4-Methoxyphenyl)-ethyl]-[3-(2-chlorphenothiazin-10-yl)-N-propyl]-methylamin]
pIC50 [1]: 5.30

COc1ccc(CCN(C)CCCn2c3ccccc3c3ccccc32)cc1OC [V5, [3-(Carbazol-9-yl)-N-propyl]-[2-(3,4-dimethoxyphenyl)-ethyl]methylamin]
pIC50 [5]: 5.10

COc1ccc(CCN(C)CCCn2c3ccccc3c3ccccc32)cc1 [V6, [3-(Carbazol-9-yl)-N-propyl]-[2-(4-methoxyphenyl)-ethyl]methylamin]
programmierten Zelltod in Mφ [2]: vermindert
Induktion von Apoptose ([2]; pretreatment of Mφ (2 µM, 30 min), C6-Ceramid (10 µM), YOPRO-1): verhinderte
Stimulierung der Ceramidbildung [3]: inhibieren
mmLDL- oder Ceramid-induzierte Enzyminduktion [4]: inhibieren
Ceramid-vermittelte aSMase-Transkription ([4]; pretreatment of Mφ (2 µM, 30 min), C6-Ceramid (10 µM)): verhinderte
Aktivierung des Enzyms ([5]; ceramide-treated Mφ, measured in cell lysates): verhinderte
pIC50 [5]: 5.05
durch mmLDL (27 µg/ml) initiierten Anstieg der aSMase-Aktivität in Zelllysaten ([5]; pretreatment of Mφ, mmLDL 27 µg/ml, basal activity 2,18 nmol/h x mg): vollständig verhindert

COc1ccc(CCN(C)CCN2c3ccccc3CCc3ccccc32)cc1OC [V15, [2-(10,11-Dihydro-dibenzo[b,f]azepin-5-yl)-N-ethyl]-[2-(3,4-dimethoxyphenyl)-ethyl]methylamin]
pIC50 [5]: 4.85

COc1ccc(CCN(C)CCN2c3ccccc3CCc3ccccc32)cc1 [V16, [2-(10,11-Dihydro-dibenzo[b,f]azepin-5-yl)-N-ethyl]-[2-(4-methoxyphenyl)-ethyl]methylamin]
pIC50 [5]: 4.80

COc1ccc(CCN2CCN(CCn3c4ccccc4c4ccccc43)CC2)cc1 [V18, N-[2-(Carbazol-9-yl)-N-ethyl]-N'-[2-(4-methoxyphenyl)-ethyl]piperazin]
pIC50 [5]: 4.48

COc1ccc(CCNCCCNC2c3ccccc3CCc3ccccc32)cc1 [V22, N-(5H-Dibenzo[a,d]cycloheptan-5-yl)-N'-[2-(4-methoxyphenyl)-ethyl]-propylendiamin]
pIC50 [5]: 5.00

COc1ccc(CCN(C)CCn2c3ccccc3c3ccccc32)cc1 [V23, [2-(Carbazol-9-yl)-N-ethyl]-[2-(4-methoxyphenyl)-ethyl]methylamin]
pIC50 [5]: 5.10

COc1ccc(CCN(C)CCC=C2c3ccccc3CCc3ccccc32)cc1 [V31, [3-(10,11-Dihydro-dibenzo[a,d]cyclohepten-5-yliden)-propyl]-[2-(4-methoxyphenyl)-ethyl]methylamin]
pIC50 [1]: 5.82
pIC50 [5]: 4.70

COc1ccc(CCN(C)C(F)(F)C(F)(F)C(F)(F)C(F)(F)n2c3ccccc3c3ccccc32)cc1 [V32, (4-Carbazol-9-yl-1,1,2,2,3,3,4,4-octafluorbutyl)-[2-(4-methoxyphenyl)-ethyl]-methylamin]
pIC50 [1]: 4.74

COc1ccc(CCN(C)CCCN(c2ccccc2)c2ccccc2)cc1 [V34, N-[2-(4-Methoxyphenyl)-ethyl]-N-methyl-N',N'-diphenylpropan-1,3-diamin]
pIC50 [1]: 5.52

COc1ccc(CCN(C)CCCN(c2ccccc2)c2ccccc2)cc1OC [V35, N-[2-(3,4-Dimethoxyphenyl)-ethyl]-N-methyl-N',N'-diphenylpropan-1,3-diamin]
pIC50 [1]: 5.22

COc1ccc(CCN2C(C)CN(CCCN3c4ccccc4Oc4ccccc43)CC2C)cc1 (stereo not drawn) [V36, 10-(3-{4-[2-(4-Methoxyphenyl)-ethyl]-3,5-dimethylpiperazin-1-yl}-propyl)-10H-phenoxazin]
pIC50 [1]: 6.00

COc1ccc(CCN(C)CCCN2c3ccccc3Oc3ccccc32)cc1OC [V37, [2-(3,4-Dimethoxyphenyl)-ethyl]-methyl-(phenoxazin-10-yl-propyl)amin]
pIC50 [1]: 5.60

COc1ccc(CCN(C)CCC=C2c3ccccc3CCc3ccccc32)cc1OC [V38, [3-(10,11-Dihydro-dibenzo[a,d]cyclohepten-5-yliden)-propyl]-[2-(3,4-dimethoxyphenyl)-ethyl]methylamin]
pIC50 [1]: 5.22

COc1ccc(CCN2CCCN(C3c4ccccc4CCc4ccccc43)C2)cc1OC [V41, N-(10,11-Dihydro-5H-dibenzo[a,d]cyclohepten-5-yl)-N'-[2-(3,4-dimethoxyphenyl)-ethyl]-hexahydropyrimidin]
pIC50 [1]: 5.15
